Measurements reported in PubChem BioAssay (NCI).
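Assay format: 96-well plates, 48-hour exposure. At the GI50, growth is halved. TGI: concentration producing complete growth inhibition.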

Experiments:
Assay in all cases: growth of human tumour cells (NCI), 48 h
786-0 renal = tested on: 786-0 renal
A498 renal = tested on: A498 renal
A549 NSCLC = tested on: A549 NSCLC
ACHN renal = tested on: ACHN renal
BT-549 breast = tested on: BT-549 breast
CAKI-1 renal = tested on: CAKI-1 renal
CCRF-CEM leukemia = tested on: CCRF-CEM leukemia
COLO 205 colon = tested on: COLO 205 colon
DU-145 prostate = tested on: DU-145 prostate
EKVX NSCLC = tested on: EKVX NSCLC
HCC-2998 colon = tested on: HCC-2998 colon
HCT-116 colon = tested on: HCT-116 colon
HCT-15 colon = tested on: HCT-15 colon
HL-60(TB) leukemia = tested on: HL-60(TB) leukemia
HOP-62 NSCLC = tested on: HOP-62 NSCLC
HOP-92 NSCLC = tested on: HOP-92 NSCLC
HS 578T breast = tested on: HS 578T breast
HT29 colon = tested on: HT29 colon
IGROV1 ovarian = tested on: IGROV1 ovarian
K-562 leukemia = tested on: K-562 leukemia
KM12 colon = tested on: KM12 colon
LOX IMVI melanoma = tested on: LOX IMVI melanoma
M14 melanoma = tested on: M14 melanoma
MALME-3M melanoma = tested on: MALME-3M melanoma
MCF7 breast = tested on: MCF7 breast
MDA-MB-231 breast = tested on: MDA-MB-231 breast
MDA-MB-435 = tested on: MDA-MB-435
MOLT-4 leukemia = tested on: MOLT-4 leukemia
NCI-H226 lung = tested on: NCI-H226 lung
NCI-H23 lung = tested on: NCI-H23 lung
NCI-H460 lung = tested on: NCI-H460 lung
NCI-H522 lung = tested on: NCI-H522 lung
NCI/ADR-RES ovarian = tested on: NCI/ADR-RES ovarian
OVCAR-3 ovarian = tested on: OVCAR-3 ovarian
OVCAR-4 ovarian = tested on: OVCAR-4 ovarian
OVCAR-5 ovarian = tested on: OVCAR-5 ovarian
OVCAR-8 ovarian = tested on: OVCAR-8 ovarian
PC-3 prostate = tested on: PC-3 prostate
RPMI-8226 leukemia = tested on: RPMI-8226 leukemia
RXF 393 renal = tested on: RXF 393 renal
SF-268 CNS = tested on: SF-268 CNS
SF-295 CNS = tested on: SF-295 CNS
SF-539 CNS = tested on: SF-539 CNS
SK-MEL-2 melanoma = tested on: SK-MEL-2 melanoma
SK-MEL-28 melanoma = tested on: SK-MEL-28 melanoma
SK-MEL-5 melanoma = tested on: SK-MEL-5 melanoma
SK-OV-3 ovarian = tested on: SK-OV-3 ovarian
SN12C renal = tested on: SN12C renal
SNB-19 CNS = tested on: SNB-19 CNS
SNB-75 CNS = tested on: SNB-75 CNS
SR leukemia = tested on: SR leukemia
SW-620 colon = tested on: SW-620 colon
T-47D breast = tested on: T-47D breast
TK-10 renal = tested on: TK-10 renal
U251 CNS = tested on: U251 CNS
UACC-257 melanoma = tested on: UACC-257 melanoma
UACC-62 melanoma = tested on: UACC-62 melanoma
UO-31 renal = tested on: UO-31 renal

`COc1cc(NS(C)(=O)=O)ccc1Nc1c2ccc(Cl)cc2nc2c(OC)cccc12` was tested, and the GI50 (786-0 renal) was 52.6 nM, the TGI (786-0 renal) was 689 nM and the GI50 (A498 renal) was 156 nM. For the same compound, the TGI (A498 renal) was 2240 nM, the GI50 (A549 NSCLC) was 13.5 nM and the TGI (A549 NSCLC) was 1350 nM. The GI50 (ACHN renal) was 31.4 nM, the TGI (ACHN renal) was 1500 nM and the GI50 (BT-549 breast) was 441 nM. For the same compound, the TGI (BT-549 breast) was 2240 nM, the GI50 (CAKI-1 renal) was 31.6 nM and the TGI (CAKI-1 renal) was 1870 nM. It also gave a GI50 (CCRF-CEM leukemia) of 30.9 nM, a TGI (CCRF-CEM leukemia) of over 91700 nM and a GI50 (COLO 205 colon) of 182 nM. The TGI (COLO 205 colon) was 2350 nM, the GI50 (DU-145 prostate) was under 14.3 nM and the TGI (DU-145 prostate) was 505 nM. For the same compound, the GI50 (EKVX NSCLC) was 6200 nM, the TGI (EKVX NSCLC) was 26700 nM and the GI50 (HCC-2998 colon) was 826 nM. It also gave a TGI (HCC-2998 colon) of 5230 nM, a GI50 (HCT-116 colon) of 79.4 nM and a TGI (HCT-116 colon) of 2050 nM. It also gave a GI50 (HCT-15 colon) of 226 nM, a GI50 (HL-60(TB) leukemia) of 31.3 nM and a TGI (HL-60(TB) leukemia) of 1300 nM. The GI50 (HOP-62 NSCLC) was 56.1 nM, the TGI (HOP-62 NSCLC) was 1440 nM and the GI50 (HOP-92 NSCLC) was 76.5 nM. The TGI (HOP-92 NSCLC) was 2480 nM, the GI50 (HS 578T breast) was 4470 nM and the TGI (HS 578T breast) was 73700 nM. For the same compound, the GI50 (HT29 colon) was 142 nM, the TGI (HT29 colon) was 1850 nM and the GI50 (IGROV1 ovarian) was 331 nM. For the same compound, the TGI (IGROV1 ovarian) was 6890 nM, the GI50 (K-562 leukemia) was 425 nM and the TGI (K-562 leukemia) was over 100000 nM. The GI50 (KM12 colon) was 268 nM, the TGI (KM12 colon) was 1810 nM and the GI50 (LOX IMVI melanoma) was 109 nM. It also gave a GI50 (M14 melanoma) of 146 nM, a TGI (M14 melanoma) of 1830 nM and a GI50 (MALME-3M melanoma) of 211 nM. The TGI (MALME-3M melanoma) was 4690 nM, the GI50 (MCF7 breast) was under 16.1 nM and the TGI (MCF7 breast) was 13200 nM. It also gave a GI50 (MDA-MB-231 breast) of 3000 nM, a TGI (MDA-MB-231 breast) of 15600 nM and a GI50 (MDA-MB-435) of 913 nM. The TGI (MDA-MB-435) was 16000 nM, the TGI (MOLT-4 leukemia) was 2150 nM and the GI50 (NCI-H226 lung) was 80.6 nM. The TGI (NCI-H226 lung) was 830 nM, the GI50 (NCI-H23 lung) was 125 nM and the TGI (NCI-H23 lung) was 5360 nM. The TGI (NCI-H460 lung) was 1370 nM, the GI50 (NCI-H522 lung) was 222 nM and the TGI (NCI-H522 lung) was 2120 nM. It also gave a GI50 (NCI/ADR-RES ovarian) of 1350 nM, a TGI (NCI/ADR-RES ovarian) of over 49400 nM and a GI50 (OVCAR-3 ovarian) of 719 nM. For the same compound, the TGI (OVCAR-3 ovarian) was 2510 nM, the GI50 (OVCAR-4 ovarian) was 2320 nM and the TGI (OVCAR-4 ovarian) was 16700 nM. It also gave a GI50 (OVCAR-5 ovarian) of 1590 nM, a TGI (OVCAR-5 ovarian) of 23300 nM and a GI50 (OVCAR-8 ovarian) of 186 nM. The TGI (OVCAR-8 ovarian) was 5070 nM, the GI50 (PC-3 prostate) was 782 nM and the TGI (PC-3 prostate) was 15200 nM. The GI50 (RPMI-8226 leukemia) was 595 nM, the GI50 (RXF 393 renal) was 411 nM and the TGI (RXF 393 renal) was 3040 nM. For the same compound, the GI50 (SF-268 CNS) was 131 nM, the TGI (SF-268 CNS) was 11500 nM and the GI50 (SF-295 CNS) was 35.6 nM. For the same compound, the TGI (SF-295 CNS) was 1110 nM, the GI50 (SF-539 CNS) was 59 nM and the TGI (SF-539 CNS) was 681 nM. The GI50 (SK-MEL-2 melanoma) was 1470 nM, the TGI (SK-MEL-2 melanoma) was 7350 nM and the GI50 (SK-MEL-28 melanoma) was 1960 nM. The TGI (SK-MEL-28 melanoma) was 18000 nM, the GI50 (SK-MEL-5 melanoma) was 129 nM and the TGI (SK-MEL-5 melanoma) was 3970 nM. The GI50 (SK-OV-3 ovarian) was 117 nM, the TGI (SK-OV-3 ovarian) was 2000 nM and the GI50 (SN12C renal) was 62.8 nM. For the same compound, the TGI (SN12C renal) was 3530 nM, the GI50 (SNB-19 CNS) was 135 nM and the TGI (SNB-19 CNS) was 22300 nM. It also gave a GI50 (SNB-75 CNS) of 96.6 nM, a TGI (SNB-75 CNS) of 1590 nM and a GI50 (SR leukemia) of under 10.9 nM. For the same compound, the TGI (SR leukemia) was 10200 nM, the GI50 (SW-620 colon) was 79.9 nM and the TGI (SW-620 colon) was 2170 nM. For the same compound, the GI50 (T-47D breast) was 82.6 nM, the TGI (T-47D breast) was 3370 nM and the GI50 (TK-10 renal) was 137 nM. For the same compound, the TGI (TK-10 renal) was 1830 nM, the GI50 (U251 CNS) was 98.2 nM and the TGI (U251 CNS) was 1320 nM. The GI50 (UACC-257 melanoma) was 698 nM, the TGI (UACC-257 melanoma) was 4070 nM and the GI50 (UACC-62 melanoma) was 189 nM. It also gave a TGI (UACC-62 melanoma) of 2960 nM, a GI50 (UO-31 renal) of 46.6 nM and a TGI (UO-31 renal) of 698 nM.
